From patent publication US10208056B2, “Condensed tricyclic compounds as protein kinase inhibitors” (FUNDACIÓN DEL SECTOR PÚBLICO ESTATAL CENTRO NACIONAL DE …, priority 2015, dated 2019)

Key:
Haspin kinase = Haspin kinase (Homo sapiens (Human), UniProt Q8TF76); test: Haspin kinase assay (ADP-Glo); type: biochemical; conditions: ATP 150 μM
Source text: The kinase assay relies on ADP-Glo^KM biochemical kinase assay (Promega). This is a luminescent kinase assay that measures ADP formed from a kinase reaction. Then ADP is converted into ATP, which is transformed into a light signal by Ultra-Glo™ Luciferase. The luminescent signal positively correlates with kinase activity. The assay measures the intrinsic ATPase activity (in the absence of peptidic substrate as phosphate acceptor).
The enzyme was purchase from Invitrogen (PV5708) as the kinase domain of GST tagged recombinant human proteins.
Assay conditions were as indicated by the kit manufacturers with the following adaptations: • Assay buffer: 15 mM HEPES pH 7.4, 20 mM NaCl, 1 mM EGTA, 0.02% Tween 20, 10 mM MgCl2, 0.1 mg/ml BGG • Assay volume: 20 μl • Incubation time and temperature: 60 min at 30° C. • Haspin concentration: 20 nM • ATP concentration: 150 μM • Tested compound: Serial 1:3 dilutions • Final DMSO concentration in the assay: 1%
Assays were performed in 384-well plates. The final read out was generated using an EnVision plate reader (Perkin-Elmer). Luminescent relative units are normalized against the control activity included for each compound (i.e., 100% Haspin activity, without compound) and the percentage of inhibition is calculated.

MDA-MB-231 = test: In vitro cell proliferation assay (CellTiter-Glo), MDA-MB-231; type: cell-based; conditions: Homo sapiens, MDA-MB-231; growth inhibition, semiquantitative; read-out: GI50 MDA-MB-231
Method: (§1) The in vitro potency of the compounds was measured by the cell proliferation assay CellTiter-Glo® Luminescent Cell Viability Assay, commercially available from Promega Corp., Madison, Wis. This homogeneous assay method is based on the recombinant expression of Coleoptera luciferase (U.S. Pat. No. 5,583,024; U.S. Pat. No. 5,674,713; U.S. Pat. No. 5,700,670) and determines the number of viable cells in culture based on quantitation of the ATP present, an indicator of metabolically active cells (Crouch et al (1993) J. Immunol. Meth. 160:81-88; U.S. Pat. No. 6,602,677). The CellTiterGlo® Assay was conducted […] it amenable to automated high throughput screening (HTS) (Cree et al (1995) AntiCancer Drugs 6:398-404).
(§2) The homogeneous assay procedure involves adding the single reagent (CellTiter-Glo® Reagent) directly to cells cultured in serum-supplemented medium. Cell washing, removal of medium and multiple pipetting steps are not required. The system detects as few as 15 cells/well in a 96-well format in 10 minutes after adding reagent and mixing.
(§3) The homogeneous “add-mix-measure” format results in cell lysis and generation of a luminescent signal proportional to the amount of ATP present. The amount of ATP is directly proportional to the number of cells present in culture. The CellTiter-Glo® Assay generates a “glow-type” luminescent signal, produced by the luciferase reaction, which has a half-life generally greater than five hours, depending on cell type and medium used. Viable cells are reflected in relative luminescence units (RLU). The substrate, Beetle Luciferin, is oxidatively decarboxylated by recombinant firefly luciferase with concomitant conversion of ATP to AMP and generation of photons. The extended half-life eliminates the need to use reagent injectors and provides flexibility for continuous or batch mode processing of multiple plates. This cell proliferation assay can be used with various multiwell formats, e.g. 96 or 384 well format. Data can be recorded by luminometer or CCD camera imaging device. The luminescence output is presented as relative light units (RLU), measured over time.

SW620 = test: In vitro cell proliferation assay (CellTiter-Glo), SW620; type: cell-based, human; conditions: Homo sapiens, SW-620; growth inhibition, semiquantitative; read-out: GI50 SW620
Method: as §1, §2, §3

MV4:11 = test: In vitro cell proliferation assay (CellTiter-Glo), MV4:11; type: cell-based; conditions: Homo sapiens, MV4-11; growth inhibition, semiquantitative; read-out: GI50 MV4:11
Method: as §1, §2, §3

CDK8/Cyclin C = CDK8/Cyclin C (Homo sapiens (Human), UniProt P49336); test: CDK8/Cyclin C binding assay (LanthaScreen Eu-Kinase Binding Assay); conditions: for IC50: binding assay
CDK8/Cyclin C, sequence (P49336 whole entry): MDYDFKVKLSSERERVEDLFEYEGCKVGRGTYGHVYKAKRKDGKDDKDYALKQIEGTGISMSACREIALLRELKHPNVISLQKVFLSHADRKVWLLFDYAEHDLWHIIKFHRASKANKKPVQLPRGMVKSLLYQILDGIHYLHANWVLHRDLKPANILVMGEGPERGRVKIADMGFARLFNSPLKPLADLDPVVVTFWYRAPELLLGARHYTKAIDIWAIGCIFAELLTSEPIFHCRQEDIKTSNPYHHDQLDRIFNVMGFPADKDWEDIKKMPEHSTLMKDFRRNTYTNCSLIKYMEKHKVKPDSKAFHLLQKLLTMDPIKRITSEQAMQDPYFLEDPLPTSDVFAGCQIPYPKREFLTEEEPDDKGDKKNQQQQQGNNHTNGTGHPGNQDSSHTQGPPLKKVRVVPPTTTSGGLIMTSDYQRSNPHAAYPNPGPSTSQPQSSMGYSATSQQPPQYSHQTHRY
CDK8/Cyclin C, sequence (P24863 whole entry partner): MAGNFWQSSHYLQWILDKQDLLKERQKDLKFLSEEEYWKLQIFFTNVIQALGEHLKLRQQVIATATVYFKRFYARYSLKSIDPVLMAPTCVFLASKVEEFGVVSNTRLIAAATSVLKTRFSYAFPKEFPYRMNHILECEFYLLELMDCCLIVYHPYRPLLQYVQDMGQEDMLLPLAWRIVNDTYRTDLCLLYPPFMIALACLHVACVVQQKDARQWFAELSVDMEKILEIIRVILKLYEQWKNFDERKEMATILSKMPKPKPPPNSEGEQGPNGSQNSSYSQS
Method: The enzyme has been purchase from Invitrogen (PV4402) as a dimer of full-length His-tagged recombinant human proteins.
(§4) Assays were performed in 384-well plates. The final read out was generated using an EnVision plate reader (Perkin-Elmer).

Molm13 = test: In vitro cell proliferation assay (CellTiter-Glo), Molm13; type: cell-based; conditions: Homo sapiens, MOLM-13; growth inhibition, semiquantitative; read-out: GI50 Molm13
Method: as §1, §2, §3

CDK19/Cyclin C = CDK19/Cyclin C (Homo sapiens (Human), UniProt Q9BWU1); test: CDK19/Cyclin C binding assay (LanthaScreen Eu-Kinase Binding Assay); conditions: read-out: CDK19-CYCC IC50
CDK19/Cyclin C, sequence (Q9BWU1 whole entry): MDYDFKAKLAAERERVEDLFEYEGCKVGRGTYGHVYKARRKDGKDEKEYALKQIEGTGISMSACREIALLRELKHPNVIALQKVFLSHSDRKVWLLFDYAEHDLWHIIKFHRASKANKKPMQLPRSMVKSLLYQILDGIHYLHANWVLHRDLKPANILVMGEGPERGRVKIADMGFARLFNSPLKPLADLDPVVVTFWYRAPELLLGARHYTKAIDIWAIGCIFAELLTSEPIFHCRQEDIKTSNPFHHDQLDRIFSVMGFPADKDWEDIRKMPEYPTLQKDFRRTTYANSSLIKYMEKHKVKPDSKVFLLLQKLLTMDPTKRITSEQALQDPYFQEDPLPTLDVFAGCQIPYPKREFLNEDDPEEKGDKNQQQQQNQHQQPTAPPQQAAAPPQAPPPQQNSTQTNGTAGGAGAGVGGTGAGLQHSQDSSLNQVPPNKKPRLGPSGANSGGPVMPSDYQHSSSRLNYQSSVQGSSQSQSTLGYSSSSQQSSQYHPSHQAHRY
CDK19/Cyclin C, sequence (P24863 whole entry partner): as the sequence (P24863 whole entry partner) above
Method: The binding assay relies on the LanthaScreen™ Eu-Kinase Binding Assay (Invitrogen).
Assay conditions were as indicated by the kit manufacturers with the following adaptations: • Assay buffer: 50 mM HEPES, pH 7.5, 1 mM EGTA, 0.01% Brij-35, 10 mM MgCl2 • Assay volume: 20 μl • Incubation time and temperature: 60 min at 25° C. • Cdk19-Cyclin C concentration: 2 nM • Tracer concentration: 20 nM • (Eu)-labelled anti-GST antibody concentration: 2 nM • Tested compound: Serial 1:3 dilutions • Final DMSO concentration in the assay: 1%
as §4

Haspin kinase, sequence (Q8TF76 484-798): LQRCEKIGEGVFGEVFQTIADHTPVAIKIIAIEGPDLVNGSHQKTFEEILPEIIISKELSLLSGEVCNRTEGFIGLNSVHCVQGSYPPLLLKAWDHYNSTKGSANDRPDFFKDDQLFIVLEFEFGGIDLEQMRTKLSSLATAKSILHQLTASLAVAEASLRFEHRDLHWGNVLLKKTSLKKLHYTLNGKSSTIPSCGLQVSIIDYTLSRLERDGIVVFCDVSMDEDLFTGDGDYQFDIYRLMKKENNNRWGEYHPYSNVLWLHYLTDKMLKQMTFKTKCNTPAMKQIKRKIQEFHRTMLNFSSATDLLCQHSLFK

NC(=O)c1cc2c([nH]1)-c1ccncc1OC21CCN(CC(F)(F)F)CC1 [Example 18] showed an IC50 (Haspin kinase) of 344 nM, a GI50 (MDA-MB-231) of 10000 to 100000 nM and a GI50 (SW620) of 10000 to 100000 nM. It also gave a GI50 (MV4:11) of 1000 to 10000 nM, an IC50 (CDK8/Cyclin C) of 20.2 nM and a GI50 (Molm13) of 1000 to 10000 nM. The IC50 (CDK19/Cyclin C) was 40.5 nM.

Work on Cn1c(C(N)=O)cc2c1-c1ccncc1OC21CCOCC1 [Example 81] yielded an IC50 (Haspin kinase) of 138 nM, a GI50 (MDA-MB-231) of 1000 to 10000 nM and a GI50 (SW620) of 1000 to 10000 nM. For the same compound, the GI50 (MV4:11) was less than 1000 nM, the IC50 (CDK8/Cyclin C) was 3.83 nM and the GI50 (Molm13) was less than 1000 nM. It also gave an IC50 (CDK19/Cyclin C) of 6.1 nM.

Work on NC(=O)c1cc2c([nH]1)-c1ccncc1OC21CCN(CCc2ccccc2)CC1 [Example 46] yielded an IC50 (Haspin kinase) of 81.3 nM, a GI50 (MDA-MB-231) of 1000 to 10000 nM and a GI50 (SW620) of 1000 to 10000 nM. For the same compound, the GI50 (MV4:11) was less than 1000 nM, the IC50 (CDK8/Cyclin C) was 445 nM and the GI50 (Molm13) was less than 1000 nM. It also gave an IC50 (CDK19/Cyclin C) of 585 nM.

Work on COCCn1c(C(N)=O)cc2c1-c1ccncc1OC21CCOCC1 [Example 87] yielded an IC50 (Haspin kinase) of 136 nM, a GI50 (MDA-MB-231) of 10000 to 100000 nM and a GI50 (SW620) of 10000 to 100000 nM. For the same compound, the GI50 (MV4:11) was 1000 to 10000 nM, the IC50 (CDK8/Cyclin C) was 14.2 nM and the GI50 (Molm13) was 10000 to 100000 nM. It also gave an IC50 (CDK19/Cyclin C) of 20.9 nM.

With CC1(C)Oc2cnccc2-c2[nH]c(C(N)=O)c(-c3ccc4[nH]ncc4c3)c21 [Example 65] the IC50 (Haspin kinase) was 933 nM, the IC50 (CDK8/Cyclin C) was 10000 nM and the IC50 (CDK19/Cyclin C) was 10000 nM.

For COc1ccc(-c2c(C(N)=O)[nH]c3c2C(C)(C)Oc2cnccc2-3)cc1 [Example 51], the IC50 (Haspin kinase) was 321 nM, the IC50 (CDK8/Cyclin C) was 31.9 nM and the IC50 (CDK19/Cyclin C) was 171 nM.

CC1(C)Oc2cnccc2-c2[nH]c(C(N)=O)c(C3=CCOCC3)c21 [Example 55] gave an IC50 (Haspin kinase) of 146 nM, an IC50 (CDK8/Cyclin C) of 39.3 nM and an IC50 (CDK19/Cyclin C) of 70.5 nM.

Cl.NC(=O)c1cc2c([nH]1)-c1ccncc1OC21CCNCC1 [Example 12] showed an IC50 (Haspin kinase) of 53.3 nM, an IC50 (CDK8/Cyclin C) of 412 nM and an IC50 (CDK19/Cyclin C) of 550 nM.

CC1(C)Oc2cnccc2-c2c1cc(C(N)=O)n2CC(F)(F)F [Example 53] showed an IC50 (Haspin kinase) of 186 nM, an IC50 (CDK8/Cyclin C) of 21.6 nM and an IC50 (CDK19/Cyclin C) of 19.4 nM.

CC1(C)Oc2cncc(Cl)c2-c2[nH]c(C(N)=O)cc21 [Example 34] gave an IC50 (Haspin kinase) of 31.8 nM, a GI50 (MV4:11) of less than 1000 nM and an IC50 (CDK8/Cyclin C) of 2.1 nM. The IC50 (CDK19/Cyclin C) was 1.41 nM.

For CC1(C)Oc2cnccc2-c2[nH]c(C(N)=O)cc21 [Example 1], the IC50 (Haspin kinase) was 38.1 nM, the GI50 (MDA-MB-231) was 10000 to 100000 nM and the GI50 (MV4:11) was 1000 to 10000 nM. It also gave an IC50 (CDK8/Cyclin C) of 2.59 nM and an IC50 (CDK19/Cyclin C) of 11.9 nM.

Work on CC1(C)Oc2cncc(Cl)c2-c2[nH]c(C(=O)O)cc21 [Example 35] yielded an IC50 (Haspin kinase) of 151 nM, an IC50 (CDK8/Cyclin C) of 13.3 nM and an IC50 (CDK19/Cyclin C) of 31.4 nM.

In the case of O=C(O)c1cc2c([nH]1)-c1ccncc1OC21CCCCC1 [Example 14], the IC50 (Haspin kinase) is reported as 1000 nM, the IC50 (CDK8/Cyclin C) is reported as 23.9 nM and the IC50 (CDK19/Cyclin C) is reported as 3.01 nM.

CC1(C)Oc2cnccc2-c2[nH]c(C(=O)O)c(C3=CCOCC3)c21 [Example 56] was tested, and the IC50 (Haspin kinase) was 683 nM, the IC50 (CDK8/Cyclin C) was 78.5 nM and the IC50 (CDK19/Cyclin C) was 86.6 nM.

Work on NC(=O)c1cc2c([nH]1)-c1ccncc1OC21CCCCC1 [Example 13] yielded an IC50 (Haspin kinase) of 53.6 nM, an IC50 (CDK8/Cyclin C) of 4.18 nM and an IC50 (CDK19/Cyclin C) of 8.22 nM.

NC(=O)c1cc2c([nH]1)-c1ccncc1OC2C1CCCCC1 (centres unmarked) [Example 57] gave a GI50 (SW620) of less than 1000 nM, an IC50 (CDK8/Cyclin C) of 1.41 nM and an IC50 (CDK19/Cyclin C) of 47.3 nM.

With C=Cc1c(C(N)=O)[nH]c2c1C(C)(C)Oc1cnccc1-2 [Example 33] the IC50 (Haspin kinase) was 90.6 nM, the IC50 (CDK8/Cyclin C) was 12.3 nM and the IC50 (CDK19/Cyclin C) was 29.5 nM.

CC1Oc2cnccc2-c2[nH]c(C(N)=O)cc21 (centres unmarked) [Example 58] showed an IC50 (Haspin kinase) of 247 nM, an IC50 (CDK8/Cyclin C) of 14.4 nM and an IC50 (CDK19/Cyclin C) of 25.5 nM.

CCn1c(C(N)=O)c(-c2cccc(OC)c2)c2c1-c1ccncc1OC2(C)C [Example 88] gave an IC50 (Haspin kinase) of 106 nM, a GI50 (MDA-MB-231) of 10000 to 100000 nM and a GI50 (SW620) of 10000 to 100000 nM. It also gave a GI50 (MV4:11) of less than 1000 nM, an IC50 (CDK8/Cyclin C) of 13.9 nM and a GI50 (Molm13) of 1000 to 10000 nM.

Compound CC1(C)Oc2cnccc2-c2[nH]c(C(N)=O)c(Cl)c21 [Example 28] has an IC50 (Haspin kinase) of 26.6 nM, an IC50 (CDK8/Cyclin C) of 9.32 nM and an IC50 (CDK19/Cyclin C) of 16.6 nM.

With Cn1c(C(N)=O)cc2c1-c1ccncc1OC21CCC1 [Example 67] the IC50 (Haspin kinase) was 27.6 nM, the IC50 (CDK8/Cyclin C) was 0.466 nM and the IC50 (CDK19/Cyclin C) was 1.41 nM.

CC1(C)Oc2cnccc2-c2[nH]c(C(=O)O)c(-c3ccc(S(N)(=O)=O)cc3)c21 [Example 30] was tested, and the IC50 (Haspin kinase) was 2740 nM, the CDK8 selectivity (CDK8/Cyclin C) was “high CDK8 selectivity” and the IC50 (CDK8/Cyclin C) was 8.94 nM. For the same compound, the IC50 (CDK19/Cyclin C) was 20.7 nM.
